Laboratory results reported in patent publication US20240252506A1 (Hoffmann-La Roche Inc., priority 2021, published 2024).
In brackets after ≈: the same amount, converted by molar mass.

system: Escherichia coli ATCC 25922; assay: Minimal Inhibitory Concentration (MIC) determination, broth microdilution (CLSI M07-A10); type: cell-based; details: Escherichia coli, ATCC25922, read-out: Escherichia coli growth inhibition MIC, strain Escherichia coli ATCC 25922, 18-24 hours at 35±2° C., lowest concentration for complete growth inhibition (no visible growth)
In short: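 MIC read visually as the lowest concentration with complete growth inhibition after 18-24 h at 35±2° C, ambient air. Method follows CLSI M07-A10 broth microdilution, two-fold compound series, inoculum standardized to 0.5 McFarland then diluted 1:200.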

With `C[C@H](N)Cn1nc2c(F)c3c(c(F)c2n1)CC(CN1CCC2(CC1)CN(c1cnc4c(n1)NC(=O)CO4)C(=O)O2)C3` [Example 123, 6-[8-[[2-[(2S)-2-aminopropyl]-4,8-difluoro-6,7-dihydro-5H-cyclopenta[f]benzotriazol-6-yl]methyl]-2-oxo-1-oxa-3,8-diazaspiro[4.5]decan-3-yl]-4H-pyrazino[2,3-b][1,4]oxazin-3-one; formic acid] the MIC was 0.125 µg/mL (≈ 0.219 µM).

same assay, conditions: Escherichia coli, ATCC25922, strain Escherichia coli ATCC 25922, 18-24 hours at 35±2° C., lowest concentration for complete growth inhibition (no visible growth), read-out: Escherichia coli growth inhibition MIC

Point of comparison: `C[C@H](N)c1nc2cc3c(c(F)c2o1)CC(CN1CCC2(CC1)CN(c1cnc4c(n1)NC(=O)CO4)C(=O)O2)C3` (stereo partly drawn) [Example 97, 6-[8-[[2-[(1S)-1-aminoethyl]-8-fluoro-6,7-dihydro-5H-cyclopenta[f][1,3]benzoxazol-6-yl]methyl]-2-oxo-1-oxa-3,8-diazaspiro[4.5]decan-3-yl]-4H-pyrazino[2,3-b][1,4]oxazin-3-one], MIC 0.125 µg/mL (≈ 0.233 µM). Against it:
- CNCc1nc2c3c(c(F)cc2o1)CC(CN1CCC2(CC1)CN(c1cnc4c(n1)NC(=O)CO4)C(=O)O2)C3 (stereo not drawn) [Example 96, 6-[8-[[5-fluoro-2-(methylaminomethyl)-7,8-dihydro-6H-cyclopenta[e][1,3]benzoxazol-7-yl]methyl]-2-oxo-1-oxa-3,8-diazaspiro[4.5]decan-3-yl]-4H-pyrazino[2,3-b][1,4]oxazin-3-one] — the same, 0.125 µg/mL (≈ 0.233 µM)
- CNCCn1nc2c(F)c3c(c(F)c2n1)CC(CN1CCC2(CC1)CN(c1cnc4c(n1)NC(=O)CO4)C(=O)O2)C3.O=CO [Example 117, 6-[8-[[4,8-difluoro-2-[2-(methylamino)ethyl]-6,7-dihydro-5H-cyclopenta[f]benzotriazol-6-yl]methyl]-2-oxo-1-oxa-3,8-diazaspiro[4.5]decan-3-yl]-4H-pyrazino[2,3-b][1,4]oxazin-3-one; formic acid] — 2-fold higher, 0.25 µg/mL
- O=C1COc2ncc(N3CC4(CCN(CC5Cc6c(c(F)c7nn(CCNC8CC8)nc7c6F)C5)CC4)OC3=O)nc2N1 [Example 122] — 4-fold higher, 0.5 µg/mL (≈ 0.839 µM)
- C[C@H](N)Cn1cnc2c(F)c3c(c(F)c21)CC(CN1CCC2(CC1)CN(c1cnc4c(n1)NC(=O)CO4)C(=O)O2)C3 (stereo partly drawn) [Example 128, 6-[8-[[1-[(2S)-2-aminopropyl]-4,8-difluoro-6,7-dihydro-5H-cyclopenta[f]benzimidazol-6-yl]methyl]-2-oxo-1-oxa-3,8-diazaspiro[4.5]decan-3-yl]-4H-pyrazino[2,3-b][1,4]oxazin-3-one] — 2-fold higher, 0.25 µg/mL (≈ 0.44 µM)
- N[C@H]1COC[C@@H]1c1nc2cc3c(c(F)c2o1)CC(CN1CCC2(CC1)CN(c1cnc4c(n1)NC(=O)CO4)C(=O)O2)C3 (stereo partly drawn) [Example 138, 6-[8-[[2-[(3R,4R)-4-Aminotetrahydrofuran-3-yl]-8-fluoro-6,7-dihydro-5H-cyclopenta[f][1,3]benzoxazol-6-yl]methyl]-2-oxo-1-oxa-3,8-diazaspiro[4.5]decan-3-yl]-4H-pyrazino[2,3-b][1,4]oxazin-3-one] — 8-fold higher, 1 µg/mL (≈ 1.73 µM)

same assay, conditions: strain Escherichia coli ATCC 25922, 18-24 hours at 35±2° C., lowest concentration for complete growth inhibition (no visible growth)

Point of comparison: `O=C1COc2ncc(N3CC4(CCN(CC5Cc6cc7nc([C@@H]8CCN8)oc7c(F)c6C5)CC4)OC3=O)nc2N1` (stereo partly drawn) [Example 107, 6-[8-[[2-[(2S)-azetidin-2-yl]-8-fluoro-6,7-dihydro-5H-cyclopenta[f][1,3]benzoxazol-6-yl]methyl]-2-oxo-1-oxa-3,8-diazaspiro[4.5]decan-3-yl]-4H-pyrazino[2,3-b][1,4]oxazin-3-one], “Escherichia coli growth inhibition MIC” value 0.125 µg/mL. Against it:
- C[C@H](N)Cn1cnc2c(F)c3c(c(F)c21)CC(CN1CCC2(CC1)CN(c1cnc4c(n1)NC(=O)CO4)C(=O)O2)C3 (stereo partly drawn) [Example 129, 6-[8-[[1-[(2S)-2-aminopropyl]-4,8-difluoro-6,7-dihydro-5H-cyclopenta[f]benzimidazol-6-yl]methyl]-2-oxo-1-oxa-3,8-diazaspiro[4.5]decan-3-yl]-4H-pyrazino[2,3-b][1,4]oxazin-3-one; formic acid] — 2-fold higher, 0.25 µg/mL
